Measured values as given in patent publication US20050197350A1, “Novel quinoline, tetrahydroquinazoline, and pyrimidine derivatives and methods of treatment related to the use thereof” (TAISHO PHARMACEUTICAL CO., LTD., priority 2003, published 2005).

Each molecule was assayed on MCH receptors (assay: MCH receptor activity class (method not given)). Settings: MCH receptor; class by percent of control at 10^-7 M or IC50.

Row | SMILES | class
1 | CN(C)c1nc(N[C@H]2CC[C@@H](NC(=S)Nc3cccc(I)c3)CC2)nc2c1CCCC2 [compound 1985] | 3 (Class 3 The value of percent of control at 10^−7 M was more than 60% or the value of IC50 was more than 200 nM.)
2 | COc1cccc(NC(=S)N[C@H]2CC[C@@H](Nc3nc4c(c(N(C)C)n3)CCCC4)CC2)c1 [compound 1986] | 3 (Class 3 The value of percent of control at 10^−7 M was more than 60% or the value of IC50 was more than 200 nM.)
3 | CN(C)c1nc(N[C@H]2CC[C@@H](NC(=S)Nc3ccc(OC(F)F)cc3)CC2)nc2c1CCCC2 [compound 1987] | 3 (Class 3 The value of percent of control at 10^−7 M was more than 60% or the value of IC50 was more than 200 nM.)
4 | CN(C)c1nc(N[C@H]2CC[C@@H](NC(=S)Nc3ccc(OC(F)(F)F)cc3)CC2)nc2c1CCCC2 [compound 1988] | 3 (Class 3 The value of percent of control at 10^−7 M was more than 60% or the value of IC50 was more than 200 nM.)
5 | CN(C)c1nc(N[C@H]2CC[C@@H](NC(=S)Nc3ccc(C(F)(F)F)cc3)CC2)nc2c1CCCC2 [compound 1989] | 3 (Class 3 The value of percent of control at 10^−7 M was more than 60% or the value of IC50 was more than 200 nM.)
6 | CN(C)c1nc(N[C@H]2CC[C@@H](NC(=S)Nc3ccc(SC(F)(F)F)cc3)CC2)nc2c1CCCC2 [compound 1990] | 3 (Class 3 The value of percent of control at 10^−7 M was more than 60% or the value of IC50 was more than 200 nM.)
7 | CN(C)c1nc(N[C@H]2CC[C@@H](NC(=S)Nc3ccc(Br)cc3F)CC2)nc2c1CCCC2 [compound 1991] | 3 (Class 3 The value of percent of control at 10^−7 M was more than 60% or the value of IC50 was more than 200 nM.)
8 | CN(C)c1nc(N[C@H]2CC[C@@H](NC(=S)Nc3ccc(Cl)c(C(F)(F)F)c3)CC2)nc2c1CCCC2 [compound 1992] | 3 (Class 3 The value of percent of control at 10^−7 M was more than 60% or the value of IC50 was more than 200 nM.)
9 | CN(C)c1nc(N[C@H]2CC[C@@H](NC(=S)Nc3ccc(F)c(C(F)(F)F)c3)CC2)nc2c1CCCC2 [compound 1993] | 3 (Class 3 The value of percent of control at 10^−7 M was more than 60% or the value of IC50 was more than 200 nM.)
10 | Cc1ccc(Cl)cc1NC(=S)N[C@H]1CC[C@@H](Nc2nc3c(c(N(C)C)n2)CCCC3)CC1 [compound 1994] | 3 (Class 3 The value of percent of control at 10^−7 M was more than 60% or the value of IC50 was more than 200 nM.)
11 | CN(C)c1nc(N[C@H]2CC[C@@H](NC(=S)NC3CC4CCC3C4)CC2)nc2c1CCCC2 (stereo partly drawn) [compound 1995] | 3 (Class 3 The value of percent of control at 10^−7 M was more than 60% or the value of IC50 was more than 200 nM.)
12 | CN(C)c1nc(N[C@H]2CC[C@@H](NC(=S)Nc3ccc(NC(=O)OC(C)(C)C)cc3)CC2)nc2c1CCCC2 [compound 1996] | 3 (Class 3 The value of percent of control at 10^−7 M was more than 60% or the value of IC50 was more than 200 nM.)
13 | COc1ccc(CCNC(=S)N[C@H]2CC[C@@H](Nc3nc4c(c(N(C)C)n3)CCCC4)CC2)cc1OC [compound 1997] | 3 (Class 3 The value of percent of control at 10^−7 M was more than 60% or the value of IC50 was more than 200 nM.)
14 | CN(C)c1nc(N[C@H]2CC[C@@H](NC(=S)NCCc3ccc(Cl)cc3)CC2)nc2c1CCCC2 [compound 1998] | 3 (Class 3 The value of percent of control at 10^−7 M was more than 60% or the value of IC50 was more than 200 nM.)
15 | CN(C)c1nc(N[C@H]2CC[C@@H](NC(=S)Nc3cc(Cl)c(Cl)c(Cl)c3Cl)CC2)nc2c1CCCC2 [compound 1999] | 3 (Class 3 The value of percent of control at 10^−7 M was more than 60% or the value of IC50 was more than 200 nM.)
16 | CN(C)c1nc(N[C@H]2CC[C@@H](NC(=S)Nc3cc(Cl)c(Cl)cc3Cl)CC2)nc2c1CCCC2 [compound 2000] | 3 (Class 3 The value of percent of control at 10^−7 M was more than 60% or the value of IC50 was more than 200 nM.)
17 | CN(C)c1nc(N[C@H]2CC[C@@H](NC(=S)Nc3c(F)cc(F)cc3F)CC2)nc2c1CCCC2 [compound 2001] | 3 (Class 3 The value of percent of control at 10^−7 M was more than 60% or the value of IC50 was more than 200 nM.)
18 | CC(C)c1cccc(C(C)C)c1NC(=S)N[C@H]1CC[C@@H](Nc2nc3c(c(N(C)C)n2)CCCC3)CC1 [compound 2002] | 3 (Class 3 The value of percent of control at 10^−7 M was more than 60% or the value of IC50 was more than 200 nM.)
19 | CN(C)c1nc(N[C@H]2CC[C@@H](NC(=S)Nc3cc(C(F)(F)F)ccc3Cl)CC2)nc2c1CCCC2 [compound 2003] | 3 (Class 3 The value of percent of control at 10^−7 M was more than 60% or the value of IC50 was more than 200 nM.)
20 | CSc1cccc(NC(=S)N[C@H]2CC[C@@H](Nc3nc4c(c(N(C)C)n3)CCCC4)CC2)c1 [compound 2004] | 3 (Class 3 The value of percent of control at 10^−7 M was more than 60% or the value of IC50 was more than 200 nM.)
21 | CN(C)c1nc(N[C@H]2CC[C@@H](NC(=S)NCc3ccc(Cl)c(Cl)c3)CC2)nc2c1CCCC2 [compound 2005] | 3 (Class 3 The value of percent of control at 10^−7 M was more than 60% or the value of IC50 was more than 200 nM.)

Row | SMILES | class
22 | COc1cc(NC(=S)N[C@H]2CC[C@@H](Nc3nc4c(c(N(C)C)n3)CCCC4)CC2)cc(OC)c1 [compound 2006] | 3 (Class 3 The value of percent of control at 10^−7 M was more than 60% or the value of IC50 was more than 200 nM.)
23 | Cc1cc(C)cc(NC(=S)N[C@H]2CC[C@@H](Nc3nc4c(c(N(C)C)n3)CCCC4)CC2)c1 [compound 2007] | 3 (Class 3 The value of percent of control at 10^−7 M was more than 60% or the value of IC50 was more than 200 nM.)
24 | CN(C)c1nc(N[C@H]2CC[C@@H](NC(=S)Nc3cccc(OCc4ccccc4)c3)CC2)nc2c1CCCC2 [compound 2008] | 3 (Class 3 The value of percent of control at 10^−7 M was more than 60% or the value of IC50 was more than 200 nM.)
25 | CN(C)c1nc(N[C@H]2CC[C@@H](NC(=S)Nc3cccc(C(=O)O)c3)CC2)nc2c1CCCC2 [compound 2009] | 3 (Class 3 The value of percent of control at 10^−7 M was more than 60% or the value of IC50 was more than 200 nM.)
26 | Cc1ccc(NC(=S)N[C@H]2CC[C@@H](Nc3nc4c(c(N(C)C)n3)CCCC4)CC2)cc1Cl [compound 2010] | 3 (Class 3 The value of percent of control at 10^−7 M was more than 60% or the value of IC50 was more than 200 nM.)
27 | CN(C)c1nc(N[C@H]2CC[C@@H](NC(=S)NCCCc3ccccc3)CC2)nc2c1CCCC2 [compound 2011] | 3 (Class 3 The value of percent of control at 10^−7 M was more than 60% or the value of IC50 was more than 200 nM.)
28 | CCN(CC)c1ccc(NC(=S)N[C@H]2CC[C@@H](Nc3nc4c(c(N(C)C)n3)CCCC4)CC2)cc1 [compound 2012] | 3 (Class 3 The value of percent of control at 10^−7 M was more than 60% or the value of IC50 was more than 200 nM.)
29 | CCOC(=O)c1ccc(NC(=S)N[C@H]2CC[C@@H](Nc3nc4c(c(N(C)C)n3)CCCC4)CC2)cc1 [compound 2013] | 3 (Class 3 The value of percent of control at 10^−7 M was more than 60% or the value of IC50 was more than 200 nM.)
30 | CN(C)c1nc(N[C@H]2CC[C@@H](NC(=S)NCc3ccc(F)cc3)CC2)nc2c1CCCC2 [compound 2015] | 3 (Class 3 The value of percent of control at 10^−7 M was more than 60% or the value of IC50 was more than 200 nM.)
31 | CC(C)c1ccc(NC(=S)N[C@H]2CC[C@@H](Nc3nc4c(c(N(C)C)n3)CCCC4)CC2)cc1 [compound 2016] | 3 (Class 3 The value of percent of control at 10^−7 M was more than 60% or the value of IC50 was more than 200 nM.)
32 | COc1ccc(NC(=S)N[C@H]2CC[C@@H](Nc3nc4c(c(N(C)C)n3)CCCC4)CC2)c([N+](=O)[O-])c1 [compound 2017] | 3 (Class 3 The value of percent of control at 10^−7 M was more than 60% or the value of IC50 was more than 200 nM.)
33 | COc1ccc(CNC(=S)N[C@H]2CC[C@@H](Nc3nc4c(c(N(C)C)n3)CCCC4)CC2)cc1 [compound 2018] | 3 (Class 3 The value of percent of control at 10^−7 M was more than 60% or the value of IC50 was more than 200 nM.)
34 | COC(=O)c1ccc(NC(=S)N[C@H]2CC[C@@H](Nc3nc4c(c(N(C)C)n3)CCCC4)CC2)cc1 [compound 2019] | 3 (Class 3 The value of percent of control at 10^−7 M was more than 60% or the value of IC50 was more than 200 nM.)
35 | Cc1ccc(NC(=S)N[C@H]2CC[C@@H](Nc3nc4c(c(N(C)C)n3)CCCC4)CC2)c([N+](=O)[O-])c1 [compound 2020] | 3 (Class 3 The value of percent of control at 10^−7 M was more than 60% or the value of IC50 was more than 200 nM.)
36 | Cc1ccc(CNC(=S)N[C@H]2CC[C@@H](Nc3nc4c(c(N(C)C)n3)CCCC4)CC2)cc1 [compound 2021] | 3 (Class 3 The value of percent of control at 10^−7 M was more than 60% or the value of IC50 was more than 200 nM.)
37 | CCCCc1ccc(NC(=S)N[C@H]2CC[C@@H](Nc3nc4c(c(N(C)C)n3)CCCC4)CC2)cc1 [compound 2022] | 3 (Class 3 The value of percent of control at 10^−7 M was more than 60% or the value of IC50 was more than 200 nM.)
38 | COc1ccc(Cl)cc1NC(=S)N[C@H]1CC[C@@H](Nc2nc3c(c(N(C)C)n2)CCCC3)CC1 [compound 2023] | 3 (Class 3 The value of percent of control at 10^−7 M was more than 60% or the value of IC50 was more than 200 nM.)
39 | CN(C)c1nc(N[C@H]2CC[C@@H](NC(=S)NC(c3ccccc3)c3ccccc3)CC2)nc2c1CCCC2 [compound 2025] | 3 (Class 3 The value of percent of control at 10^−7 M was more than 60% or the value of IC50 was more than 200 nM.)
40 | CN(C)c1nc(N[C@H]2CC[C@@H](NC(=S)NC3CCCCCCCCCCC3)CC2)nc2c1CCCC2 [compound 2026] | 3 (Class 3 The value of percent of control at 10^−7 M was more than 60% or the value of IC50 was more than 200 nM.)
41 | CN(C)c1nc(N[C@H]2CC[C@@H](NC(=S)NCC3CCCCC3)CC2)nc2c1CCCC2 [compound 2027] | 3 (Class 3 The value of percent of control at 10^−7 M was more than 60% or the value of IC50 was more than 200 nM.)
42 | CN(C)c1nc(N[C@H]2CC[C@@H](NC(=S)NC3CC3)CC2)nc2c1CCCC2 [compound 2029] | 3 (Class 3 The value of percent of control at 10^−7 M was more than 60% or the value of IC50 was more than 200 nM.)
